From patent publication US10760110B2, “Antibiotic testing and screening system” (priority 2017, dated 2020)
Where two headings read alike, the source gives them in different places.

System: K. pneumoniae NVT1001 strains with ESBL or AmpC β-lactamase plasmids
Assay: Etest MIC of β-lactams, OmpK35/36 loss, ΔramR and/or extended-spectrum β-lactamase and AmpC β-lactamase (Table 8)
Type: cell-based, Klebsiella pneumoniae
Details: Klebsiella pneumoniae
Description: DNA fragments of the resistance genes along with their flanking regions were amplified from clinical plasmids via PCR with specific primer pairs. The resulting PCR fragments were digested and then cloned into the plasmid pACYC177 or pACYC184. The resulting plasmids were then transformed into K. pneumoniae strain NVT1001 via electroporation. The recombinant bacteria were plated onto LB agar plates containing kanamycin (50 mg/L) or chloramphenicol (50 mg/L), and the presence of the cloned gene was confirmed via PCR and DNA sequencing.
The MICs of antibiotics were determined using the Etest (Biodisk AB, Sweden) according to the manufacturer's instructions. The MICs from the Etest, which fall between standard two-fold dilutions, were rounded up to the next highest two-fold value. The MICs of ceftazidime and cefotaxime against K. pneumoniae NVT1001 harbouring the pACYC177 plasmid with blaOXA-48 were further determined using a broth microdilution test according to the recommendations of the CLSI,^25 and the results were interpreted according to the breakpoints established by the CLSI in 2017.^25 Meanwhile, due to the lack of CLSI breakpoints in 2016 and 2017, the results for cephalothin were interpreted according to the breakpoints established by the CLSI in 2015,^26 and the results for moxifloxacin were interpreted according to the breakpoints established by the EUCAST in 2017.^27

[1] = CMY-2 on pACYC177, WT (NVT1001), read-out: MIC
[2] = CMY-2 on pACYC177, Δ35 (ΔompK35 mutant)
[3] = CMY-2 on pACYC177, Δ35/36 (ΔompK35/36 mutant)
[4] = CMY-2 on pACYC177, Δ36 (ΔompK36 mutant)
[5] = CMY-2 on pACYC177, ΔramR mutant
[6] = CMY-2 on pACYC177, ΔramRΔ35 (ΔramRΔompK35 mutant)
[7] = CMY-2 on pACYC177, ΔramRΔ35/36 (ΔramRΔompK35/36 mutant)
[8] = CMY-2 on pACYC177, ΔramRΔ36 (ΔramRΔompK36 mutant)
[9] = CTX-M-14 on pACYC177, WT (NVT1001), read-out: MIC
[10] = CTX-M-14 on pACYC177, Δ35 (ΔompK35 mutant)
[11] = CTX-M-14 on pACYC177, Δ35/36 (ΔompK35/36 mutant)
[12] = CTX-M-14 on pACYC177, Δ36 (ΔompK36 mutant)
[13] = CTX-M-14 on pACYC177, ΔramR mutant
[14] = CTX-M-14 on pACYC177, ΔramRΔ35 (ΔramRΔompK35 mutant)
[15] = CTX-M-14 on pACYC177, ΔramRΔ35/36 (ΔramRΔompK35/36 mutant)
[16] = CTX-M-14 on pACYC177, ΔramRΔ36 (ΔramRΔompK36 mutant)
[17] = CTX-M-15 on pACYC177, WT (NVT1001), read-out: MIC
[18] = CTX-M-15 on pACYC177, Δ35 (ΔompK35 mutant)
[19] = CTX-M-15 on pACYC177, Δ35/36 (ΔompK35/36 mutant)
[20] = CTX-M-15 on pACYC177, Δ36 (ΔompK36 mutant)
[21] = CTX-M-15 on pACYC177, ΔramR mutant
[22] = CTX-M-15 on pACYC177, ΔramRΔ35 (ΔramRΔompK35 mutant)
[23] = CTX-M-15 on pACYC177, ΔramRΔ35/36 (ΔramRΔompK35/36 mutant)
[24] = CTX-M-15 on pACYC177, ΔramRΔ36 (ΔramRΔompK36 mutant)
[25] = DHA-1-AmpR on pACYC177, WT (NVT1001), read-out: MIC
[26] = DHA-1-AmpR on pACYC177, Δ35 (ΔompK35 mutant)
[27] = DHA-1-AmpR on pACYC177, Δ35/36 (ΔompK35/36 mutant)
[28] = DHA-1-AmpR on pACYC177, Δ36 (ΔompK36 mutant)
[29] = DHA-1-AmpR on pACYC177, ΔramR mutant
[30] = DHA-1-AmpR on pACYC177, ΔramRΔ35 (ΔramRΔompK35 mutant)
[31] = DHA-1-AmpR on pACYC177, ΔramRΔ35/36 (ΔramRΔompK35/36 mutant)
[32] = DHA-1-AmpR on pACYC177, ΔramRΔ36 (ΔramRΔompK36 mutant)
[33] = SHV-12 on pACYC177, WT (NVT1001), read-out: MIC
[34] = SHV-12 on pACYC177, Δ35 (ΔompK35 mutant)
[35] = SHV-12 on pACYC177, Δ35/36 (ΔompK35/36 mutant)
[36] = SHV-12 on pACYC177, Δ36 (ΔompK36 mutant)
[37] = SHV-12 on pACYC177, ΔramR mutant
[38] = SHV-12 on pACYC177, ΔramRΔ35 (ΔramRΔompK35 mutant)
[39] = SHV-12 on pACYC177, ΔramRΔ35/36 (ΔramRΔompK35/36 mutant)
[40] = SHV-12 on pACYC177, ΔramRΔ36 (ΔramRΔompK36 mutant)
[41] = no supplemental plasmid, WT (NVT1001), read-out: MIC
[42] = no supplemental plasmid, Δ35 (ΔompK35 mutant)
[43] = no supplemental plasmid, Δ35/36 (ΔompK35/36 mutant)
[44] = no supplemental plasmid, Δ36 (ΔompK36 mutant)
[45] = no supplemental plasmid, ΔramR mutant
[46] = no supplemental plasmid, ΔramRΔ35 (ΔramRΔompK35 mutant)
[47] = no supplemental plasmid, ΔramRΔ35/36 (ΔramRΔompK35/36 mutant)
[48] = no supplemental plasmid, ΔramRΔ36 (ΔramRΔompK36 mutant)

## C[C@@H](O)[C@H]1C(=O)N2C(C(=O)O)=C(S[C@@H]3CN[C@H](C(=O)Nc4cccc(C(=O)O)c4)C3)[C@H](C)[C@H]12 [Ertapenem]
[1]
  MIC: 1 µg/mL
[2]
  MIC: 1 µg/mL
[3]
  MIC: > 32 µg/mL
[4]
  MIC: 4 µg/mL
[5]
  MIC: 1 µg/mL
[6]
  MIC: 1 µg/mL
[7]
  MIC: > 32 µg/mL
[8]
  MIC: > 32 µg/mL
[9]
  MIC: 0.125 µg/mL
[10]
  MIC: 0.25 µg/mL
[11]
  MIC: 8 µg/mL
[12]
  MIC: 0.25 µg/mL
[13]
  MIC: 0.25 µg/mL
[14]
  MIC: 0.25 µg/mL
[15]
  MIC: 16 µg/mL
[16]
  MIC: 16 µg/mL
[17]
  MIC: 0.5 µg/mL
[18]
  MIC: 0.5 µg/mL
[19]
  MIC: > 32 µg/mL
[20]
  MIC: 0.5 µg/mL
[21]
  MIC: 0.5 µg/mL
[22]
  MIC: 0.5 µg/mL
[23]
  MIC: > 32 µg/mL
[24]
  MIC: > 32 µg/mL
[25]
  MIC: 1 µg/mL
[26]
  MIC: 1 µg/mL
[27]
  MIC: > 32 µg/mL
[28]
  MIC: 1 µg/mL
[29]
  MIC: 1 µg/mL
[30]
  MIC: 1 µg/mL
[31]
  MIC: > 32 µg/mL
[32]
  MIC: > 32 µg/mL
[33]
  MIC: 0.06 µg/mL
[34]
  MIC: 0.06 µg/mL
[35]
  MIC: 4 µg/mL
[36]
  MIC: 0.06 µg/mL
[37]
  MIC: 0.125 µg/mL
[38]
  MIC: 0.125 µg/mL
[39]
  MIC: 4 µg/mL
[40]
  MIC: 4 µg/mL
[41]
  MIC: 0.015 µg/mL
[42]
  MIC: 0.03 µg/mL
[43]
  MIC: 2 µg/mL
[44]
  MIC: 0.03 µg/mL
[45]
  MIC: 0.125 µg/mL
[46]
  MIC: 0.125 µg/mL
[47]
  MIC: 4 µg/mL
[48]
  MIC: 4 µg/mL

## CC(=O)OCC1=C(C(=O)O)N2C(=O)[C@@H](NC(=O)Cc3cccs3)[C@H]2SC1 [Cephalothin]
[1]
  MIC: > 256 µg/mL
[2]
  MIC: > 256 µg/mL
[3]
  MIC: > 256 µg/mL
[4]
  MIC: > 256 µg/mL
[5]
  MIC: > 256 µg/mL
[6]
  MIC: > 256 µg/mL
[7]
  MIC: > 256 µg/mL
[8]
  MIC: > 256 µg/mL
[9]
  MIC: > 256 µg/mL
[10]
  MIC: > 256 µg/mL
[11]
  MIC: > 256 µg/mL
[12]
  MIC: > 256 µg/mL
[13]
  MIC: > 256 µg/mL
[14]
  MIC: > 256 µg/mL
[15]
  MIC: > 256 µg/mL
[16]
  MIC: > 256 µg/mL
[17]
  MIC: > 256 µg/mL
[18]
  MIC: > 256 µg/mL
[19]
  MIC: > 256 µg/mL
[20]
  MIC: > 256 µg/mL
[21]
  MIC: > 256 µg/mL
[22]
  MIC: > 256 µg/mL
[23]
  MIC: > 256 µg/mL
[24]
  MIC: > 256 µg/mL
[25]
  MIC: > 256 µg/mL
[26]
  MIC: > 256 µg/mL
[27]
  MIC: > 256 µg/mL
[28]
  MIC: > 256 µg/mL
[29]
  MIC: > 256 µg/mL
[30]
  MIC: > 256 µg/mL
[31]
  MIC: > 256 µg/mL
[32]
  MIC: > 256 µg/mL
[33]
  MIC: > 256 µg/mL
[34]
  MIC: > 256 µg/mL
[35]
  MIC: > 256 µg/mL
[36]
  MIC: > 256 µg/mL
[37]
  MIC: > 256 µg/mL
[38]
  MIC: > 256 µg/mL
[39]
  MIC: > 256 µg/mL
[40]
  MIC: > 256 µg/mL
[41]
  MIC: 8 µg/mL
[42]
  MIC: 8 µg/mL
[43]
  MIC: 256 µg/mL
[44]
  MIC: 16 µg/mL
[45]
  MIC: 64 µg/mL
[46]
  MIC: 64 µg/mL
[47]
  MIC: > 256 µg/mL
[48]
  MIC: > 256 µg/mL

## CO/N=C(\C(=O)N[C@@H]1C(=O)N2C(C(=O)O)=C(COC(N)=O)CS[C@H]12)c1ccco1 [Cefuroxime]
[1]
  MIC: 256 µg/mL
[2]
  MIC: 256 µg/mL
[3]
  MIC: > 256 µg/mL
[4]
  MIC: > 256 µg/mL
[5]
  MIC: > 256 µg/mL
[6]
  MIC: > 256 µg/mL
[7]
  MIC: > 256 µg/mL
[8]
  MIC: > 256 µg/mL
[9]
  MIC: > 256 µg/mL
[10]
  MIC: > 256 µg/mL
[11]
  MIC: > 256 µg/mL
[12]
  MIC: > 256 µg/mL
[13]
  MIC: > 256 µg/mL
[14]
  MIC: > 256 µg/mL
[15]
  MIC: > 256 µg/mL
[16]
  MIC: > 256 µg/mL
[17]
  MIC: > 256 µg/mL
[18]
  MIC: > 256 µg/mL
[19]
  MIC: > 256 µg/mL
[20]
  MIC: > 256 µg/mL
[21]
  MIC: > 256 µg/mL
[22]
  MIC: > 256 µg/mL
[23]
  MIC: > 256 µg/mL
[24]
  MIC: > 256 µg/mL
[25]
  MIC: > 256 µg/mL
[26]
  MIC: > 256 µg/mL
[27]
  MIC: > 256 µg/mL
[28]
  MIC: > 256 µg/mL
[29]
  MIC: > 256 µg/mL
[30]
  MIC: > 256 µg/mL
[31]
  MIC: > 256 µg/mL
[32]
  MIC: > 256 µg/mL
[33]
  MIC: 64 µg/mL
[34]
  MIC: 64 µg/mL
[35]
  MIC: > 256 µg/mL
[36]
  MIC: 128 µg/mL
[37]
  MIC: 256 µg/mL
[38]
  MIC: 128 µg/mL
[39]
  MIC: > 256 µg/mL
[40]
  MIC: > 256 µg/mL
[41]
  MIC: 4 µg/mL
[42]
  MIC: 8 µg/mL
[43]
  MIC: 32 µg/mL
[44]
  MIC: 16 µg/mL
[45]
  MIC: 32 µg/mL
[46]
  MIC: 64 µg/mL
[47]
  MIC: 128 µg/mL
[48]
  MIC: > 256 µg/mL
